Legend:
CYP2C19 = target: T1, CYP2C19 (Homo sapiens, UniProt P33261); test: Single concentration Kobs assay (time-dependent inhibition) in HLM; type: biochemical; details: for Kobs 2C19: HLM, 0.02 min^−1 indicates TD inhibition potential; for Kobs 2C19 / inhibition at 30 min: single concentration; for Single concentration Kobs assay (risk bin) 2C19: TD inhibition class from Kobs vs 0.02 min^−1 (Table 5 traffic lights); for inhibition at 30 min: human, human liver microsomes, significant if >50%, read-out: 2C19 R_Inh% (reversible inhibition)
T1 construct: Using HLM as the enzyme source; from tissue; host or cells: human liver microsomes
Excerpt: (§1) CYP inhibition evaluation is typically performed by either IC50 at single-point or IC50 Shift or abbreviated assay such as the first-order inactivity rate constant (K obs ) at single concentration.
(§2) This method yielded good correlations between the percent inhibition at 10 or 25 μ M and kinact/KI. Evaluation of TD inhibition at single concentration has been implemented in several drug discovery programs. […] Therefore, in this study, a single K obs approach has been utilized to understand the TD inhibition potential of TbB ligands. Ideally, the inhibition of CYPs can be reversible or irreversible. The data obtained from single-concentration K obs studies were analyzed to understand the same. From the data presented in Table 4, the TbB ligands have values less than 50% for reversible inhibition (R_Inh). As the qualified % reversible inhibition is considered significant if >50%, no significant reversible inhibition is observed for TbB ligands. Knowledge about enzyme inactivation half-life (E½) is also equally important as it would provide insight into the TD inhibition of a compound. E½ can be used to bin the compounds as positive or negative TD inhibitors if the values are <28 or >28, respectively. The TbB ligand 223-2 is observed to be a weak positive TD inhibitor of 1A2 and is negative TD inhibitor to the other six CYP isoforms.
(§3) The time-dependent inhibition (TDI) potential of test compounds against CYP1A2, 2B6, 2C8, 2C9, 2C19, 2D6, 3A4/5 isoforms were determined using Human liver microsomes. Assay is performed in 96-deep well plate format (n = 1). Positive controls and DMSO as negative control in each assay. To obtain 100 μ M working stock solution, 1 μ L of blank DMSO/test/reference compounds to 100 μ L 1× DPBS buffer was added and labeled as dilution plate. To the primary incubation plate, 45 μ L of primary mix was dispensed to the desired wells containing 25 μ L HLM, 10 μ L MgCl2, and 10 μ L of NADPH working solutions. To the secondary incubation plate, 95 μ L of secondary mix was dispensed to the desired wells containing 20 μ L MgCl2, 20 μ L NADPH, 10 μ L respective substrates for CYP isoform working solutions and 45 μ L 1× DPBS buffer. […] Pre-incubated the dilution plate along with primary incubation plate at 37 °C for 15 min at 450 rpm. The reaction was carried out in triplicate. After the incubation, the reaction was quenched by adding 150 μ L ice cold stop solution to all the wells followed by centrifuging the samples at 4000 rpm, 4 °C for 15 min. The supernatant samples were then transferred into vials for LC-MS/MS analysis. […]

CYP2C9 = target: T2, CYP2C9 (Homo sapiens, UniProt P11712); test: as above; type: biochemical; details: for Kobs 2C9: HLM, 0.02 min^−1 indicates TD inhibition potential; for Kobs 2C9 / inhibition at 30 min: single concentration; for Single concentration Kobs assay (risk bin) 2C9: TD inhibition class from Kobs vs 0.02 min^−1 (Table 5 traffic lights); for inhibition at 30 min: human, human liver microsomes, significant if >50%, read-out: 2C9 R_Inh% (reversible inhibition)
T2 construct: Using HLM as the enzyme source; from tissue; host or cells: human liver microsomes
Excerpt: as §1, §2, §3

[1] = Substrate depletion assay in cryopreserved human hepatocytes (CPHH); type: in vitro ADME; details: pooled cryopreserved human hepatocytes; for half-life at 1 µM: pH 7.3, test conc. 1.0E-06 M (Table S4); for half-life / hepatocyte CLint: pH 7.3, test conc. 1×10^−6 M, n = 3
Experimental: Microsomal stability was determined for the TbB ligands by monitoring the presence of compound after incubation in CPHH and HLM, as shown in Figure 7 and Figure S18 of the Supporting Information. […] Such an observation with NCEs is common because, with HLM, NADPH is used as a cofactor, thereby focusing mainly on phase 1 oxidation pathways such as P450 metabolism. Although additional enzymes, such as UDP-glucuronosyltransferase (UGTs), are present in HLM, the lack of the associated necessary cofactors prevents them from being functionally active (e.g., uridine diphosphate glucuronic acid (UDPGA)). In contrast, all the three TbB ligands metabolized in cryopreserved hepatocytes (Figure 7). […] The reason could be that hepatocytes have all the necessary enzymes and cofactors for the metabolic processes. Since they contain the complete set of oxidative/reductive, hydrolytic, and conjugative drug metabolizing enzymes found in the liver, they are regarded as the gold standard. Therefore, they are preferred in vitro options for expressing metabolic stability as substrate depletion, total metabolic clearance, and T 1/2 [29].
From the plot shown in Figure S18 of the Supporting Information, it can be inferred that the TbB ligands undergo slow biotransformation in HLM. Such high metabolic stability may result in drug interactions leading to toxicity of the parent compound. On the contrary, TbB ligands are undergoing rapid biotransformation in CPHH (Figure 7), and this may lead to generation of metabolites that are either toxic, active, or nonactive. Metabolic stability is typically expressed by in vitro half-life T 1/2 and intrinsic clearance (CLint) terms. Intrinsic clearance (CLint) is measured using the substrate depletion method. It describes the maximum liver (microsomal proteins or hepatocytes) activity towards a compound not affected by other physiological factors such as hepatic blood flow and drug binding within the blood matrix. T 1/2 is used to express the time for the 50% disappearance of the parent compound. A possible explanation for the difference in metabolic stability might be that the TbB ligands bind to microsomes during incubation. This can result in decreased free TbB ligand levels available to interact with metabolizing enzymes, reducing apparent intrinsic clearance values.
The test compound stability in a pooled human cryopreserved hepatocytes was tested after thawing, washing, and resuspending the cryopreserved hepatocytes in Krebs–Heinslet buffer (pH 7.3). The onset of reaction happens by the addition of the test compound into cell suspension and incubated for 0, […], 1, 1.5, and 2 h, respectively, at 37 °C/5% CO 2 . The reaction is terminated in the incubation mixture by the addition of acetonitrile. After thorough sample mixing, the sample was completely transferred to another 96-well plate and centrifuged, followed by HPLC-MS/MS analysis of supernatant. Four compounds as reference, namely, propranolol, a relatively stable and readily metabolizing flurazepam, naloxone, and HFC (7-hydroxy-4-trifluoromethyl-coumarin) in human hepatocytes were included in each assay. Data analysis was performed as mentioned above and the intrinsic clearance (CLint) is calculated from the half-life using the following equation. CLint(μL/min/millioncells)=0.693/T1/2×CellDensity.

T1 sequence (P33261 whole entry): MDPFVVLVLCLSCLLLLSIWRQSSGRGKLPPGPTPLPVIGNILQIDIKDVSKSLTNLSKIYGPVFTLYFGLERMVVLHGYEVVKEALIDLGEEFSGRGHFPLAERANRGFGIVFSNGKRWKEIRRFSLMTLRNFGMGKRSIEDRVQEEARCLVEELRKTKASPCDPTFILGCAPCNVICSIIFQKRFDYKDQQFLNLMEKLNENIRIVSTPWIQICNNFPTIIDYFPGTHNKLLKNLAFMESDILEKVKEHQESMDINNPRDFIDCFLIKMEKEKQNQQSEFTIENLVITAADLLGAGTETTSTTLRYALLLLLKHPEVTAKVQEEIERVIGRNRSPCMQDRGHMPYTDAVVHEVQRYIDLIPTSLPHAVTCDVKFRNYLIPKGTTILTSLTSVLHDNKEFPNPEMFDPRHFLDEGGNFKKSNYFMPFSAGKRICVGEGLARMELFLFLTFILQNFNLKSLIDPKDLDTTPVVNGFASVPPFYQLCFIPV
T2 sequence (P11712 whole entry): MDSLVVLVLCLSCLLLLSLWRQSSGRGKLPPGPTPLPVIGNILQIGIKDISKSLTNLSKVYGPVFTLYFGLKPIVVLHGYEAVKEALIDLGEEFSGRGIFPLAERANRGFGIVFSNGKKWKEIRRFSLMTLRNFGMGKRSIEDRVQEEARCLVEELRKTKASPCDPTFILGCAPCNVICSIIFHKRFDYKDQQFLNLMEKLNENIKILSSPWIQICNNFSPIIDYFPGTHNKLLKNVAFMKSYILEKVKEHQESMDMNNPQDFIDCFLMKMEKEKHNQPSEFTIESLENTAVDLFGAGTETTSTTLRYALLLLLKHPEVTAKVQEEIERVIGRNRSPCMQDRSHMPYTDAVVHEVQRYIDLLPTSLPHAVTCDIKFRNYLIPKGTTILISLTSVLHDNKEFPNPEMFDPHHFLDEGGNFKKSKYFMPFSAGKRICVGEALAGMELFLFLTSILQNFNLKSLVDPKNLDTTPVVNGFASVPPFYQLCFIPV

Structure (SMILES) | Kobs 2C19 (CYP2C19) | Kobs 2C19 (CYP2C19; listed as 223-02) | Single concentration Kobs assay (risk bin) 2C19 (CYP2C19) | inhibition at 30 min (CYP2C19) | Kobs 2C9 (CYP2C9) | Single concentration Kobs assay (risk bin) 2C9 (CYP2C9) | inhibition at 30 min (CYP2C9) | half-life at 1 µM [1] | half-life [1] | hepatocyte CLint [1] | Kobs 2C19 (CYP2C19; listed as 223-03) | Kobs 2C9 (CYP2C9; listed as 223-03)
COc1cc(-c2nnn(-c3cc(OC)c(O)c(OC)c3)n2)cc(OC)c1O [223-2] | 0.0206 min⁻¹ | 0.02058 min⁻¹ | weak positive inhibitor | < 50% | 0.005304 min⁻¹ | negative inhibitor | < 50% | 33 min | 33 min | 29.8 µL/min/1e6 cells | – | –
Cc1cc(-c2nnn(-c3cc(C)c(O)c(C)c3)n2)cc(C)c1O [223-3] | 0.0306 min⁻¹ | – | positive inhibitor | < 50% | 0.0748 min⁻¹ | positive inhibitor | < 50% | 54 min | 54 min | 18.4 µL/min/1e6 cells | 0.03055 min⁻¹ | 0.07477 min⁻¹
Oc1ccc(-c2nnn(-c3ccc(O)cc3)n2)cc1 [223-10] | 0.00365 min⁻¹ | – | negative inhibitor | < 50% | – | positive inhibitor | < 50% | 36 min | 36 min | 27.8 µL/min/1e6 cells | – | –
